According to patent US8802597B2, “Herbicidal pyrimidines” (E I du Pont de Nemours and Company, priority 2003, dated 2014):
Where two headings read alike, the source gives them in different places.

Legend:
Format in all cases: in vivo
[1] = tested on: cocklebur (Xanthium strumarium); assay: Test B pre/postemergence; details: Xanthium strumarium; for pest or weed control at 125 g/ha: 125 g ai/ha; for pest or weed control at 500 g/ha: 500 g ai/ha
Procedure, shortened: (§1)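 Visual injury scored 0 (no effect) to 100 (complete control) versus untreated controls after 13 to 15 days in greenhouse. Treatments were pre- or postemergence sprays of surfactant-containing solvent formulations; postemergence plants at 1- to 4-leaf stage, 2 to 18 cm.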

[2] = tested on: Surinam grass (Brachiaria decumbens); assay: Test B pre/postemergence; details: Urochloa decumbens; for pest or weed control at 125 g/ha: 125 g ai/ha; for pest or weed control at 500 g/ha: 500 g ai/ha
Procedure, shortened: as §1

[3] = tested on: barnyardgrass (Echinochloa crus-galli); assay: Test B pre/postemergence; details: Echinochloa crus-galli; for pest or weed control at 125 g/ha: 125 g ai/ha; for pest or weed control at 500 g/ha: 500 g ai/ha
Procedure, shortened: as §1

corn (Zea mays) = assay: Test B pre/postemergence; details: Zea mays
Procedure, shortened: as §1

[4] = tested on: wheat (Triticum aestivum); assay: Test B pre/postemergence; details: Triticum aestivum; for plant injury at 125 g/ha: 125 g ai/ha; for plant injury at 500 g/ha: 500 g ai/ha
Procedure, shortened: as §1

[5] = tested on: pigweed (Amaranthus retroflexus); assay: Test B pre/postemergence; details: Amaranthus retroflexus; for pest or weed control at 125 g/ha: 125 g ai/ha; for pest or weed control at 500 g/ha: 500 g ai/ha
Procedure, shortened: as §1

[6] = tested on: velvetleaf (Abutilon theophrasti); assay: Test B pre/postemergence; details: Abutilon theophrasti; for pest or weed control at 125 g/ha: 125 g ai/ha; for pest or weed control at 500 g/ha: 500 g ai/ha
Procedure, shortened: as §1

[7] = tested on: giant foxtail (Setaria faberii); assay: Test B pre/postemergence; details: Setaria faberi; for pest or weed control at 125 g/ha: 125 g ai/ha; for pest or weed control at 500 g/ha: 500 g ai/ha
Procedure, shortened: as §1

[8] = tested on: crabgrass (Digitaria sanguinalis); assay: Test B pre/postemergence; details: Digitaria sanguinalis; for pest or weed control at 125 g/ha: 125 g ai/ha; for pest or weed control at 500 g/ha: 500 g ai/ha
Procedure, shortened: as §1

[9] = tested on: morningglory (Ipomoea coccinea); assay: Test B pre/postemergence; details: Ipomoea; for pest or weed control at 125 g/ha: 125 g ai/ha; for pest or weed control at 500 g/ha: 500 g ai/ha
Procedure, shortened: as §1

[10] = tested on: lambsquarters (Chenopodium album); assay: Test B pre/postemergence; details: Chenopodium album; for pest or weed control at 125 g/ha: 125 g ai/ha; for pest or weed control at 500 g/ha: 500 g ai/ha
Procedure, shortened: as §1

[11] = tested on: umbrella sedge (Cyperus difformis); assay: Test B flooded paddy test; details: Cyperus difformis, Flood, 1000 g ai/ha; scale 0 to 100; read-out: Plant response rating, Sedge, Umbrella
Procedure, shortened: (§2)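 Plants were grown to the 2-leaf stage before treatment, then kept in a greenhouse for 13 to 15 days. Injury was rated visually against untreated controls on a 0 to 100 scale, where 0 is no effect and 100 is complete control.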

rice (Oryza sativa) = assay: Test B flooded paddy test; details: Oryza sativa, Flood, 1000 g ai/ha; scale 0 to 100; read-out: Plant response rating, Rice
Procedure, shortened: as §2

[12] = tested on: barnyardgrass (Echinochloa crus-galli); assay: Test B flooded paddy test; details: Echinochloa crus-galli, Flood, 1000 g ai/ha; scale 0 (no effect) to 100 (complete control); read-out: Plant response rating, Barnyardgrass
Procedure, shortened: as §2

[13] = tested on: duck salad (Heteranthera limosa); assay: Test B flooded paddy test; details: Heteranthera limosa, Flood, 1000 g ai/ha; scale 0 to 100; read-out: Plant response rating, Ducksalad
Procedure, shortened: as §2

[14] = tested on: blackgrass (Alopecurus myosuroides); assay: Test B postemergence; details: Alopecurus myosuroides, post-emergence
Procedure, shortened: as §1

wild oat (Avena fatua) = assay: Test B postemergence; details: Avena fatua, post-emergence
Procedure, shortened: as §1

## CCOC(=O)c1nc(-c2ccccc2)nc(N)c1Br [Compound 18]
[1]; post-emergence, Postemergence, scale 0 to 100 (0 no effect, 100 complete control), read-out: Cocklebur plant response rating
  pest or weed control at 125 g/ha: 70%
[1]; post-emergence, Postemergence, scale 0 to 100, read-out: Plant response rating, Cocklebur
  pest or weed control at 500 g/ha: 70%
[1]; pre-emergence, Preemergence, scale 0 to 100 (0 no effect, 100 complete control), read-out: Plant response rating, Cocklebur
  pest or weed control at 125 g/ha: 10%
[1]; pre-emergence, Preemergence, scale 0 to 100 (0 no effect, 100 complete control), read-out: Cocklebur plant response rating
  pest or weed control at 500 g/ha: 40%
[2]; post-emergence, Postemergence, scale 0 to 100 (0 no effect, 100 complete control), read-out: Surinam Grass plant response rating
  pest or weed control at 125 g/ha: 0%
[2]; post-emergence, Postemergence, scale 0 to 100, read-out: Plant response rating, Surinam Grass
  pest or weed control at 500 g/ha: 0%
[2]; pre-emergence, Preemergence, scale 0 to 100 (0 no effect, 100 complete control), read-out: Plant response rating, Surinam Grass
  pest or weed control at 125 g/ha: 0%
[2]; pre-emergence, Preemergence, scale 0 to 100 (0 no effect, 100 complete control), read-out: Surinam Grass plant response rating
  pest or weed control at 500 g/ha: 0%
[3]; post-emergence, Postemergence, scale 0 to 100 (0 no effect, 100 complete control), read-out: Barnyardgrass plant response rating
  pest or weed control at 125 g/ha: 0%
[3]; post-emergence, Postemergence, scale 0 to 100, read-out: Plant response rating, Barnyardgrass
  pest or weed control at 500 g/ha: 0%
[3]; pre-emergence, Preemergence, scale 0 to 100 (0 no effect, 100 complete control), read-out: Plant response rating, Barnyardgrass
  pest or weed control at 125 g/ha: 0%
[3]; pre-emergence, Preemergence, scale 0 to 100 (0 no effect, 100 complete control), read-out: Barnyardgrass plant response rating
  pest or weed control at 500 g/ha: 0%
Corn (Zea mays); post-emergence, Postemergence, 125 g ai/ha, scale 0 to 100 (0 no effect, 100 complete control), read-out: Corn plant response rating
  plant injury at 125 g/ha: 0%
Corn (Zea mays); post-emergence, Postemergence, 500 g ai/ha, scale 0 to 100
  Corn plant response rating (crop injury, 0 = no effect, 100 = complete kill) at 500 g/ha: 0%
Corn (Zea mays); pre-emergence, Preemergence, 125 g ai/ha, scale 0 to 100 (0 no effect, 100 complete control)
  Corn plant response rating (crop injury, 0 = no effect, 100 = complete kill) at 125 g/ha: 0%
Corn (Zea mays); pre-emergence, Preemergence, 500 g ai/ha, scale 0 to 100 (0 no effect, 100 complete control), read-out: Corn plant response rating
  plant injury at 500 g/ha: 0%
[4]; post-emergence, Postemergence, scale 0 to 100 (0 no effect, 100 complete control), read-out: Wheat plant response rating
  plant injury at 125 g/ha: 0%
[4]; post-emergence, Postemergence, scale 0 to 100, read-out: Plant response rating, Wheat
  plant injury at 500 g/ha: 0%
[4]; pre-emergence, Preemergence, scale 0 to 100 (0 no effect, 100 complete control), read-out: Plant response rating, Wheat
  plant injury at 125 g/ha: 0%
[4]; pre-emergence, Preemergence, scale 0 to 100 (0 no effect, 100 complete control), read-out: Wheat plant response rating
  plant injury at 500 g/ha: 0%
[5]; post-emergence, Postemergence, scale 0 to 100 (0 no effect, 100 complete control), read-out: Pigweed plant response rating
  pest or weed control at 125 g/ha: 20%
[5]; post-emergence, Postemergence, scale 0 to 100, read-out: Plant response rating, Pigweed
  pest or weed control at 500 g/ha: 70%
[5]; pre-emergence, Preemergence, scale 0 to 100 (0 no effect, 100 complete control), read-out: Plant response rating, Pigweed
  pest or weed control at 125 g/ha: 0%
[5]; pre-emergence, Preemergence, scale 0 to 100 (0 no effect, 100 complete control), read-out: Pigweed plant response rating
  pest or weed control at 500 g/ha: 70%
[6]; post-emergence, Postemergence, scale 0 to 100 (0 no effect, 100 complete control), read-out: Velvetleaf plant response rating
  pest or weed control at 125 g/ha: 20%
[6]; post-emergence, Postemergence, scale 0 to 100, read-out: Plant response rating, Velvetleaf
  pest or weed control at 500 g/ha: 50%
[6]; pre-emergence, Preemergence, scale 0 to 100 (0 no effect, 100 complete control), read-out: Plant response rating, Velvetleaf
  pest or weed control at 125 g/ha: 0%
[6]; pre-emergence, Preemergence, scale 0 to 100 (0 no effect, 100 complete control), read-out: Velvetleaf plant response rating
  pest or weed control at 500 g/ha: 40%
[7]; post-emergence, Postemergence, scale 0 to 100 (0 no effect, 100 complete control), read-out: Foxtail, Giant plant response rating
  pest or weed control at 125 g/ha: 0%
[7]; post-emergence, Postemergence, scale 0 to 100, read-out: Plant response rating, Foxtail, Giant
  pest or weed control at 500 g/ha: 0%
[7]; pre-emergence, Preemergence, scale 0 to 100 (0 no effect, 100 complete control), read-out: Plant response rating, Foxtail, Giant
  pest or weed control at 125 g/ha: 0%
[7]; pre-emergence, Preemergence, scale 0 to 100 (0 no effect, 100 complete control), read-out: Foxtail, Giant plant response rating
  pest or weed control at 500 g/ha: 0%
[8]; post-emergence, Postemergence, scale 0 to 100 (0 no effect, 100 complete control), read-out: Crabgrass plant response rating
  pest or weed control at 125 g/ha: 0%
[8]; post-emergence, Postemergence, scale 0 to 100, read-out: Plant response rating, Crabgrass
  pest or weed control at 500 g/ha: 0%
[8]; pre-emergence, Preemergence, scale 0 to 100 (0 no effect, 100 complete control), read-out: Plant response rating, Crabgrass
  pest or weed control at 125 g/ha: 0%
[8]; pre-emergence, Preemergence, scale 0 to 100 (0 no effect, 100 complete control), read-out: Crabgrass plant response rating
  pest or weed control at 500 g/ha: 0%
[9]; post-emergence, Postemergence, scale 0 to 100 (0 no effect, 100 complete control), read-out: Morningglory plant response rating
  pest or weed control at 125 g/ha: 20%
[9]; post-emergence, Postemergence, scale 0 to 100, read-out: Plant response rating, Morningglory
  pest or weed control at 500 g/ha: 70%
[9]; pre-emergence, Preemergence, scale 0 to 100 (0 no effect, 100 complete control), read-out: Plant response rating, Morningglory
  pest or weed control at 125 g/ha: 0%
[9]; pre-emergence, Preemergence, scale 0 to 100 (0 no effect, 100 complete control), read-out: Morningglory plant response rating
  pest or weed control at 500 g/ha: 0%
[10]; post-emergence, Postemergence, scale 0 to 100 (0 no effect, 100 complete control), read-out: Lambsquarters plant response rating
  pest or weed control at 125 g/ha: 70%
[10]; post-emergence, Postemergence, scale 0 to 100, read-out: Plant response rating, Lambsquarters
  pest or weed control at 500 g/ha: 90%
[10]; pre-emergence, Preemergence, scale 0 to 100 (0 no effect, 100 complete control), read-out: Plant response rating, Lambsquarters
  pest or weed control at 125 g/ha: 10%
[10]; pre-emergence, Preemergence, scale 0 to 100 (0 no effect, 100 complete control), read-out: Lambsquarters plant response rating
  pest or weed control at 500 g/ha: 60%
[11]
  pest or weed control at 1000 g/ha: 0%
Rice (Oryza sativa)
  plant injury at 1000 g/ha: 0%
[12]
  pest or weed control at 1000 g/ha: 0%
[13]
  pest or weed control at 1000 g/ha: 80%
[14]; 125 g ai/ha, scale 0 to 100 (0 no effect, 100 complete control), read-out: Blackgrass plant response rating
  pest or weed control at 125 g/ha: 0%
[14]; 500 g ai/ha, scale 0 to 100, read-out: Plant response rating, Blackgrass
  pest or weed control at 500 g/ha: 0%
Wild oat (Avena fatua); 125 g ai/ha, scale 0 to 100 (0 no effect, 100 complete control), read-out: Oat, Wild plant response rating
  pest or weed control at 125 g/ha: 0%
Wild oat (Avena fatua); 500 g ai/ha, scale 0 to 100, read-out: Plant response rating, Oat, Wild
  pest or weed control at 500 g/ha: 0%
